Test results published in patent US10821100B2, “Triazolone compounds as mPGES-1 inhibitors” (Glenmark Pharmaceuticals S.A., priority 2012, dated 2020).
Each block holds one compound with its values, some of them ahead of it.

Biological target: T1, Recombinant human mPGES-1 (Homo sapiens, UniProt O14684)
T1 construct: made in house; host or cells: CHO cells (crude microsomal fractions)
T1 sequence (O14684 1-152): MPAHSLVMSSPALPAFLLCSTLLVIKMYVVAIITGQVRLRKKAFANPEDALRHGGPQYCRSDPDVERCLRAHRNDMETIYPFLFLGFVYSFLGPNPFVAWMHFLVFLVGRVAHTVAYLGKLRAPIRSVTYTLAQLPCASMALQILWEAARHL
Test: In-vitro screening of mPGES-1 inhibitors (inhibition of PGE2 formation from PGH2, HTRF detection)
Type: biochemical
Settings: mPGES-1 enzyme; for inhibition at 1 µM: 1 μM test compound, read-out: Percentage inhibition at 1 μM; for inhibition at 1 µM / inhibition at 10 µM / inhibition at 3 µM: crude microsomal fractions; for inhibition at 10 µM: 10 μM test compound, read-out: Percentage inhibition at 10 μM; for IC50: class symbols; for inhibition at 3 µM: 3 μM test compound, read-out: Percentage inhibition at 3 μM
Text: In-Vitro Protocol for Screening of mPGES-1 Inhibitors: mPGES-1 (Microsomal prostaglandin E synthase-1) is a microsomal enzyme that converts endoperoxide substrate PGH2 (prostaglandin H2) to product PGE2 (prostaglandin E2) by isomerization in the presence of reduced glutathione (GSH). mPGES-1 inhibitors were screened by assessing their ability to inhibit formation of PGE2 from PGH2 in the presence of mPGES-1 using an anti-PGE2 antibody based detection method. Recombinant human mPGES-1 was generated in-house by expression in CHO cells (Ouellet M et al. (2002), Protein Expression and Purification 26: 489-495). The assay was set up using crude microsomal fractions at a protein concentration of 40-60 μg/mL. Test compounds were prepared in 100% dimethyl sulfoxide (DMSO) to obtain 20 mM stock solution and then diluted using assay buffer comprising 0.1 M Potassium phosphate buffer with 2 mM EDTA. The final concentration of DMSO in the reaction was 0.5% (v/v). Negative controls were comprised of all assay reagents except the enzyme. Positive controls were comprised of the enzyme reaction in the absence of any inhibitor. Test compounds were incubated for 10 minutes in assay buffer containing 2.5 mM GSH and mPGES-1 enzyme followed by addition of PGH2 at a concentration of 15 μM for 1 minute. The reaction was stopped by addition of Stannous chloride (11 mg/ml) and PGE2 levels were measured ([…] et al. (2005), Journal of Biomolecular Screening 10(6) 599-605; Goedken R E et al. (2008), Journal of Biomolecular Screening 13 (7): 619-625) by HTRF kit (CisBio)). Inhibition of mPGES-1 enzyme activity was measured using the percent of reaction occurring in the positive control. Concentration response curves were plotted using percent inhibition of maximum enzyme reaction. The IC50 value was calculated from the concentration response curve by nonlinear regression analysis using GraphPad PRISM software.

Compound: COc1cc(-n2nc(-c3c(Cl)cccc3Cl)[nH]c2=O)ccc1-c1nc(C(C)C)no1 [Example-50, 3-(2,6-Dichlorophenyl)-1-(4-(3-isopropyl-1,2,4-oxadiazol-5-yl)-3-methoxyphenyl)-1H-1,2,4-triazol-5(4H)-one]
- inhibition at 1 µM: 95.3%
- inhibition at 10 µM: 99.8%
- IC50: 50 to 100 nM

Compound: COc1cc(-n2nc(-c3c(C)cccc3Cl)[nH]c2=O)ccc1C(=O)Nc1cccc(C(F)F)c1 [Example-54, 4-(3-(2-Chloro-6-methylphenyl)-5-oxo-4,5-dihydro-1H-1,2,4-triazol-1-yl)-N-(3-(difluoromethyl)phenyl)-2-methoxybenzamide]
- inhibition at 1 µM: 89.4%
- inhibition at 10 µM: 97.5%
- IC50: 50 to 100 nM

Compound: COc1cc(-n2nc(-c3c(F)cccc3Cl)[nH]c2=O)ccc1-c1nc2cc(C)c(C)cc2n1C [Example-58, 3-(2-Chloro-6-fluorophenyl)-1-(3-methoxy-4-(1,5,6-trimethyl-1H-benzo[d]imidazol-2-yl)phenyl)-1H-1,2,4-triazol-5(4H)-one]
- inhibition at 1 µM: 95.2%
- inhibition at 10 µM: 97.3%
- IC50: 50 to 100 nM

Compound: COc1cc(-n2nc(-c3c(Cl)cccc3C#N)[nH]c2=O)ccc1C(=O)Nc1cccc(C(F)(F)F)c1 [Example-62, 4-(3-(2-Chloro-6-cyanophenyl)-5-oxo-4,5-dihydro-1H-1,2,4-triazol-1-yl)-2-methoxy-N-(3-(trifluoromethyl)phenyl)benzamide]
- inhibition at 1 µM: 97.8%
- inhibition at 10 µM: 98.3%
- IC50: < 50 nM

Compound: COc1cc(-n2nc(-c3cc(CNC(=O)C4CC4)ccc3Cl)[nH]c2=O)ccc1C(=O)Nc1ccc(F)c(C(F)F)c1 [Example-63, 4-(3-(2-Chloro-5-(cyclopropanecarboxamidomethyl)phenyl)-5-oxo-4,5-dihydro-1H-1,2,4-triazol-1-yl)-N-(3-(difluoromethyl)-4-fluorophenyl)-2-methoxybenzamide]
- inhibition at 1 µM: 92.4%
- inhibition at 10 µM: 94.8%
- IC50: < 50 nM

Compound: COc1cc(-n2nc(-c3c(Cl)cccc3Cl)[nH]c2=O)ccc1C(=O)Nc1cc(CNC(=O)C2CC2)ccc1Cl [Example-64, N-(2-Chloro-5-(cyclopropanecarboxamidomethyl)phenyl)-4-(3-(2,6-dichlorophenyl)-5-oxo-4,5-dihydro-1H-1,2,4-triazol-1-yl)-2-methoxybenzamide]
- inhibition at 1 µM: 28.9%
- inhibition at 10 µM: 63.8%

Compound: COc1cc(-n2nc(-c3c(Cl)cccc3Cl)[nH]c2=O)ccc1-c1nc2cc(C(F)(F)F)ccc2[nH]1 [Example-65, 3-(2,6-Dichlorophenyl)-1-(3-methoxy-4-(5-(trifluoromethyl)-1H-benzo[d]imidazol-2-yl)phenyl)-1H-1,2,4-triazol-5(4H)-one]
- inhibition at 1 µM: 75.5%
- inhibition at 10 µM: 94.5%

Compound: COc1cc(-n2nc(-c3cc(CNC(=O)C4CC4)ccc3Cl)[nH]c2=O)ccc1NC(=O)C1CC1 [Example-66, N-(4-Chloro-3-(1-(4-(cyclopropanecarboxamido)-3-methoxyphenyl)-5-oxo-4,5-dihydro-1H-1,2,4-triazol-3-yl)benzyl)cyclopropanecarboxamide]
- inhibition at 1 µM: 87.8%
- inhibition at 10 µM: 98.8%
- IC50: > 100 nM

Compound: COc1cc(-n2nc(-c3c(Cl)cccc3Cl)[nH]c2=O)ccc1C(=O)Nc1ccc(S(C)(=O)=O)cc1 [Example-67, 4-(3-(2,6-Dichlorophenyl)-5-oxo-4,5-dihydro-1H-1,2,4-triazol-1-yl)-2-methoxy-N-(4-(methylsulfonyl)phenyl)benzamide]
- inhibition at 1 µM: 72.7%
- inhibition at 10 µM: 96.3%

Further lines, results first:

- inhibition at 1 µM: 89.5%
- inhibition at 10 µM: 96.5%
- IC50: < 50 nM
Compound: COc1cc(-n2nc(-c3c(F)cccc3Cl)[nH]c2=O)ccc1-c1nc(-c2cc(F)cc(C(F)(F)F)c2)no1 [Example-47, 3-(2-Chloro-6-fluorophenyl)-1-(4-(3-(3-fluoro-5-(trifluoromethyl)phenyl)-1,2,4-oxadiazol-5-yl)-3-methoxyphenyl)-1H-1,2,4-triazol-5(4H)-one]

- inhibition at 1 µM: 98.3%
- inhibition at 10 µM: 100%
- IC50: < 50 nM
Compound: COc1cc(-n2nc(-c3c(F)cccc3Cl)[nH]c2=O)ccc1C(=O)Nc1nnc(C(F)(F)F)s1 [Example-48, 4-(3-(2-Chloro-6-fluorophenyl)-5-oxo-4,5-dihydro-1H-1,2,4-triazol-1-yl)-2-methoxy-N-(5-(trifluoromethyl)-1,3,4-thiadiazol-2-yl)benzamide]

- inhibition at 1 µM: 89.2%
- inhibition at 10 µM: 96.3%
- IC50: < 50 nM
Compound: COc1cc(-n2nc(-c3c(Cl)cccc3Cl)[nH]c2=O)ccc1-c1nc(-c2ccc(Cl)cc2)no1 [Example-49, 1-(4-(3-(4-Chlorophenyl)-1,2,4-oxadiazol-5-yl)-3-methoxyphenyl)-3-(2,6-dichlorophenyl)-1H-1,2,4-triazol-5(4H)-one]

- inhibition at 1 µM: 88.3%
- inhibition at 10 µM: 86%
- IC50: < 50 nM
Compound: O=c1[nH]c(-c2c(F)cccc2Cl)nn1-c1ccc(-c2nc(-c3ccc(Cl)cc3)no2)cc1 [Example-51, 3-(2-Chloro-6-fluorophenyl)-1-(4-(3-(4-chlorophenyl)-1,2,4-oxadiazol-5-yl)phenyl)-1H-1,2,4-triazol-5(4H)-one]

- inhibition at 1 µM: 96.4%
- inhibition at 10 µM: 98.3%
- IC50: < 50 nM
Compound: COc1cc(-n2nc(-c3cc(CNC(=O)C4CC4)ccc3Cl)[nH]c2=O)ccc1C(=O)Nc1cccc(C(F)(F)F)c1 [Example-52, 4-(3-(2-Chloro-5-(cyclopropanecarboxamidomethyl)phenyl)-5-oxo-4,5-dihydro-1H-1,2,4-triazol-1-yl)-2-methoxy-N-(3-(trifluoromethyl)phenyl)benzamide]

- inhibition at 1 µM: 82.7%
- inhibition at 10 µM: 97.9%
- IC50: < 50 nM
Compound: COc1cc(-n2nc(-c3c(C)cccc3Cl)[nH]c2=O)ccc1C(=O)Nc1ccc(F)c(C(F)F)c1 [Example-53, 4-(3-(2-Chloro-6-methylphenyl)-5-oxo-4,5-dihydro-1H-1,2,4-triazol-1-yl)-N-(3-(difluoromethyl)-4-fluorophenyl)-2-methoxybenzamide]

- inhibition at 1 µM: 81%
- inhibition at 3 µM: 91.8%
- IC50: < 50 nM
Compound: COc1cc(-n2nc(-c3c(C)cccc3Cl)[nH]c2=O)ccc1-c1nc(-c2ccc(Cl)cc2)no1 [Example-55, 3-(2-Chloro-6-methylphenyl)-1-(4-(3-(4-chlorophenyl)-1,2,4-oxadiazol-5-yl)-3-methoxyphenyl)-1H-1,2,4-triazol-5(4H)-one]

- inhibition at 1 µM: 98.1%
- inhibition at 10 µM: 98.5%
- IC50: < 50 nM
Compound: COc1cc(-n2nc(-c3c(C)cccc3Cl)[nH]c2=O)ccc1C(=O)Nc1cccc(C(F)(F)F)c1 [Example-56, 4-(3-(2-Chloro-6-methylphenyl)-5-oxo-4,5-dihydro-1H-1,2,4-triazol-1-yl)-2-methoxy-N-(3-(trifluoromethyl)phenyl)benzamide]

- inhibition at 1 µM: 98.7%
- inhibition at 3 µM: 98.5%
- IC50: < 50 nM
Compound: COc1cc(-n2nc(-c3cc(CNC(=O)C4CC4)ccc3Cl)[nH]c2=O)ccc1-c1nc(-c2ccc(Cl)cc2)no1 [Example-57, N-(4-Chloro-3-(1-(4-(3-(4-chlorophenyl)-1,2,4-oxadiazol-5-yl)-3-methoxyphenyl)-5-oxo-4,5-dihydro-1H-1,2,4-triazol-3-yl)benzyl)cyclopropanecarboxamide]

- inhibition at 1 µM: 93.9%
- inhibition at 10 µM: 96.8%
- IC50: < 50 nM
Compound: COc1cc(-n2nc(-c3c(F)cccc3Cl)[nH]c2=O)ccc1C#Cc1cc(Cl)ccc1Cl [Example-59, 3-(2-Chloro-6-fluorophenyl)-1-(4-((2,5-dichlorophenyl)ethynyl)-3-methoxyphenyl)-1H-1,2,4-triazol-5(4H)-one]

- inhibition at 1 µM: 95.4%
- inhibition at 10 µM: 93.1%
- IC50: < 50 nM
Compound: COc1cc(-n2nc(-c3c(F)cccc3Cl)[nH]c2=O)ccc1C#Cc1cccc(Cl)c1F [Example-60, 1-(4-((3-Chloro-2-fluorophenyl)ethynyl)-3-methoxyphenyl)-3-(2-chloro-6-fluorophenyl)-1H-1,2,4-triazol-5(4H)-one]

- inhibition at 1 µM: 92.4%
- inhibition at 10 µM: 96.8%
- IC50: < 50 nM
Compound: COc1cc(-n2nc(-c3c(F)cccc3Cl)[nH]c2=O)ccc1C#Cc1ccc(C(F)(F)F)cc1Cl [Example-61, 1-(4-((2-Chloro-4-(trifluoromethyl)phenyl)ethynyl)-3-methoxyphenyl)-3-(2-chloro-6-fluorophenyl)-1H-1,2,4-triazol-5(4H)-one]
